Entries after “also recorded” stand apart in the source; their conditions may differ. Where a name gives a salt, the structure may show the parent alone.
Experiments:
Ovine Laminitis = assay: Histological evaluation of treatment in an acute model of ovine laminitis (lactic acid infusion + Compound 48/80); format: in vivo; settings: Group 2: Nedocromil sodium (42 mg/kg) + lactic acid infusion + Compound 48/80 (1 mg/kg); anesthetized sheep; hematoxylin and eosin sections
Description: Laminitis can be induced in vivo through systemic acidosis. This study initiated laminitis in anesthetized sheep by inducing acidosis for the purpose of measuring the level of inflammation in the hoof vascular bed associated with initiation of laminitis. Adult Suffolk sheep (at least 6 months old) weighing at least 60 kg were obtained for the study. Animals were housed and research procedures were performed according to the standards provided in the Guide for the Care and Use of Laboratory Animals, 7th Edition, Revised 1996, National Academy Press, Washington, DC. During acclimation, sheep were pasture-housed with access to feed, water, and shelter. Sheep were fed a standard diet of hay and alfalfa in addition to pasture feed. One day prior to surgery, each animal was transferred to an indoor facility with single animal runs. […] The runs had automatic watering devices and animals were fed in steel feeders. Animals were acclimated for a minimum of one day prior to surgery. Sheep were fasted approximately 16 hours overnight on the day prior to surgery. Two sheep served as terminal controls after prolonged infusion of lactic acid and the mast cell activator 48/80. Systemic blood pH was lowered to approximately […], the animals euthanized, and the hooves observed histopathologically. […]

Bovine Laminitis = format: in vivo, Holstein calves
From the text: To test the effectiveness of nedocromil sodium to prevent laminitis in cattle, 4 Holstein calves weighing between 325 and 350 pounds were selected for the study and treated as shown in Table 11.
Starting with day one through day four, and continuing day six through day seven, calves 1 and 2 received Nedocromil sodium pretreatment (1.5 grams infused through the jugular vein) while calves 3 and 4 received no treatment. On each of days one through four and days six through seven, blood samples were obtained from all four calves. No treatments were administered on days eight through ten. On day eleven, calves 1 and 2 were administered 2 grams of Nedocromil sodium. Shortly thereafter, 3.5 pounds of corn starch and 1.5 pounds of sugar mixed in water along with 6×10^11 lactic acid producing and histamine producing organisms were administered to all four calves by releasing the mixture into the rumen of each animal. The process of administering the carbohydrate plus lactic acid producing and histamine producing organisms is known to induce acidosis in cattle.
The calves' behavior was observed, blood samples taken, and temperatures measured over the next 72 hours.

[1] = test system: Rattus norvegicus basophilic leukemia cells; assay: Lactic acid-stimulated histamine release from basophilic leukemia cells (GC-MS); format: cell-based
Description: The immortal cell culture line of Rattus norvegicus basophilic leukemia cells was subcultured and incubated at 37° C. overnight. […] After incubation, 50 μL of the supernatant was removed from the cells and stored at −80° C. or derivatized for GC-MS analysis.
The supernatant was mixed with 135 μl of an acetone reaction solution (ethanol, triethylamine, and 9-methylanthracene) in a 0.5 ml microtube. After mixing for 10 seconds, 55 μl of a chloroform derivatization solution containing […] ethylchloroformate was added and mixed for an additional 10 seconds. Then, 350 μL purified water was added and the two phases allowed to separate for 60 seconds. The organic phase was aspirated and placed into a 2 mL autosampler amber vial with glass inserts and dried with anhydrous sodium sulfate before being capped with GC vial snap caps.
The organic phase samples were dried and analyzed on an Agilent GC/MS 6890/5975C system with MS Chem Station software. Gas chromatography was carried out using a fused silica DB-WAX precolumn (0.2 m×0.25 mm, dF=0.25 μm), and a fused silica DB-WAX separation column (4 m×0.25 mm, dF=0.25 μm). Ultra high purity He was used as the carrier gas.
The GC parameters were set as follows: injection time was set to 5 μl using the splitless mode. After 120 seconds the split valve was opened with a 40 mL/minute split flow and front inlet temperature was held at 150° C. The oven temperature was ramped, starting at 60° C. for 2 minutes then increased at 50° C./minute to 160° C., then increased at 20° C./minute to 260° C. and held for 2.5 minutes. The MS detector was maintained at 300° C., with a solvent delay of 7 minutes, ion m/z 192 at 7.0-8.7 minutes, dwell time 100 ms, low-mass resolution; ion m/z 166, m/z 154 at 8.7-11.5 minutes, dwell time per ion 100 ms, low-mass resolution. […]

CCCc1c2oc(C(=O)O)cc(=O)c2cc2c(=O)cc(C(=O)O)n(CC)c12 [Nedocromil sodium, disodium salt of 9-ethyl-6,9-dihydro-4,6-dioxo-10-propyl-4H-pyrano[3,2-g]-quinoline-2,8-dicarboxylic acid]
Findings (histology of hoof sections, inflammation) (Ovine Laminitis): No inflammation was observed; also recorded: effectively reduced short-term inflammation; also recorded: No significant findings
Toxicity and/or side effects (Bovine Laminitis; bovine, in vivo): lack of toxicity and/or side effects
Protection from lactic acidosis (Bovine Laminitis; calves 1 and 2, nedocromil sodium 1.5 g via jugular vein on days 1-4 and 6-7, 2 g on day 11 before carbohydrate mixture, observed 72 hours): protected from lactic acidosis
Histamine Levels ([1]; Lactic acid + 1 μl nedocromil sodium): 15.810
Histamine Levels ([1]; Lactic acid + 2 μl nedocromil sodium): 14.470
Inhibition of histamine release ([1]; lactic acid-stimulated cells, increasing levels of nedocromil sodium): effective in inhibiting histamine release

Source: US9333191B2, “Mast cell stabilizers to prevent or treat laminitis” (WILLOWCROFT PHARM INC., priority 2004, dated 2016)
